Assay results from PMC12692861, “Biotin-Linked Ursolic Acid Conjugates as Selective Anticancer Agents and Target-Identification Tools for Cancer Therapy” (Molecules, 2025).

Key:
Test in all cases: Streptavidin pulldown proteomics (LC-MS/MS), MB49 cells
Assay type in all cases: binding, murine
Conditions in all cases: MB-49, 50 µM
ATP synthase subunit O = ATP synthase subunit O (Mus musculus, UniProt Q9DB20)
Experimental: (§1) We used proteomics to identify potential molecular targets of 5c. A pulldown assay with streptavidin-agarose-coated magnetic beads was performed. Briefly, 5637 and MB49 cells were incubated with 50 µM 5c for 10 min and 1 h. After incubation, the cells were rinsed three times with cold phosphate-buffered saline (PBS), and cell lysates were prepared and clarified by centrifugation to remove cellular debris, including nuclei. The clarified lysates were incubated with streptavidin-coated magnetic beads to selectively bind biotinylated contents. Bound proteins were separated from unbound proteins through thorough bead washing. Proteins attached to the beads were eluted and analyzed on an Orbitrap Fusion Tribrid mass spectrometer (Thermo Scientific, New York, NY, USA) coupled with an Ultimate 3000 nano-UPLC system. Samples were trapped on a PepMap100 C18 trap column (5 µm, 0.3 × 5 mm) and separated on a PepMap RSLC C18 column (2 µm, 75 µm × 150 mm) using a gradient from 2 to 40% acetonitrile with 0.1% formic acid over 120 min at […] and 40 °C. MS data were acquired in positive mode using data-dependent acquisition (DDA), with precursor scans at 120,000 FWHM (400–2000 m/z), and MS/MS scans in top-speed mode (3 s cycle) using HCD fragmentation (NCE 32%). Proteins were identified and quantified based on peptide spectral matches (PSMs), and fold enrichment compared to controls was calculated to evaluate interaction strength.
(§2) The 5637 and MB49 cells were cultured and treated with higher concentrations of 5c (50 µM) for short period of times (10 min & 60 min) followed by whole cell lysis (WCL) preparation of both treated and untreated cells using modified RIPA buffer [NaCl (100mM), TrisCl (20mM, pH 7.4), EDTA (10 mM), TritonX-100 (0.5%), Glycerol (5%), Protease inhibitor cocktail (1x)] with gentle continuous rotation. The protein content of each WCL was estimated using Pierce™ BCA Protein Assay kit (Thermo-Scientific # 23225). The 100 µL of resuspended Dynabeads™ MyOne™ Streptavidin C1 (Invitrogen # 65001) were washed with PBST (PBS with 0.01% Tween™20) in a magnet stand as recommended in the manufacturer’s instructions. The washed beads were incubated with 200 µg of each WCL in separate tubes at room temperature for 2 h in a gentle end-over-end mixing. After incubation, beads were washed 3–5 times with PBST (0.01% Tween-20) on a magnetic stand and beads were decanted by after spinning and magnetization. The samples were stored at −80 °C till further analysis using LC-MS/MS by the Proteomics and Mass Spectrometry Core Laboratory of Augusta University.

[1] = target: ATP synthase subunit alpha (Mus musculus, UniProt Q03265)
Experimental: as §1, §2

[2] = target: ATP synthase subunit beta (Mus musculus, UniProt P56480)
Experimental: as §1, §2

[3] = target: Elongation factor 1-delta (EF1δ) (Mus musculus, UniProt P57776)
Experimental: as §1, §2

[4] = target: Elongation factor 1-gamma (EF1γ) (Mus musculus, UniProt Q9D8N0)
Experimental: as §1, §2

[5] = target: Elongation factor 2 (eEF2) (Mus musculus, UniProt P58252)
Experimental: as §1, §2

[6] = system: Eukaryotic initiation factor 4A (eIF4A)
Experimental: as §1, §2

[7] = system: Eukaryotic translation initiation factor 2 (eIF2)
Experimental: as §1, §2

[8] = target: Eukaryotic translation initiation factor 5B (eIF5B) (Mus musculus, UniProt Q05D44)
Experimental: as §1, §2

Filamin-A (FLNA) = Filamin-A (FLNA) (Mus musculus, UniProt Q8BTM8)
Experimental: as §1, §2

HSC 71 = HSC 71 (Mus musculus, UniProt P63017)
Experimental: as §1, §2

HSP 90-alpha (HSP90α) = HSP 90-alpha (HSP90α) (Mus musculus, UniProt P07901)
Experimental: as §1, §2

HSP 90-beta (HSP90β) = HSP 90-beta (HSP90β) (Mus musculus, UniProt P11499)
Experimental: as §1, §2

[9] = target: Heterogeneous nuclear ribonucleoprotein U (HNRNPU) (Mus musculus, UniProt Q8VEK3)
Experimental: as §1, §2

[10] = target: Histone H2A type 2-C (HIST2H2AC) (Mus musculus, UniProt Q64523)
Experimental: as §1, §2

Histone H2A.Z = Histone H2A.Z (Mus musculus, UniProt P0C0S6)
Experimental: as §1, §2

Histone H4 = Histone H4 (Mus musculus, UniProt P62806)
Experimental: as §1, §2

[11] = target: Rab-like protein 6 (RABL6) (Mus musculus, UniProt Q5U3K5)
Experimental: as §1, §2

[12] = target: Ras GTPase-activating-like protein IQGAP1 (Mus musculus, UniProt Q9JKF1)
Experimental: as §1, §2

[13] = target: Receptor of activated protein C kinase 1 (RACK1) (Mus musculus, UniProt P68040)
Experimental: as §1, §2

[14] = target: Ribosomal L1 domain-containing protein 1 (RSL1D1) (Mus musculus, UniProt Q8BVY0)
Experimental: as §1, §2

Sequence of Rab-like protein 6 (RABL6) (Q5U3K5 whole entry): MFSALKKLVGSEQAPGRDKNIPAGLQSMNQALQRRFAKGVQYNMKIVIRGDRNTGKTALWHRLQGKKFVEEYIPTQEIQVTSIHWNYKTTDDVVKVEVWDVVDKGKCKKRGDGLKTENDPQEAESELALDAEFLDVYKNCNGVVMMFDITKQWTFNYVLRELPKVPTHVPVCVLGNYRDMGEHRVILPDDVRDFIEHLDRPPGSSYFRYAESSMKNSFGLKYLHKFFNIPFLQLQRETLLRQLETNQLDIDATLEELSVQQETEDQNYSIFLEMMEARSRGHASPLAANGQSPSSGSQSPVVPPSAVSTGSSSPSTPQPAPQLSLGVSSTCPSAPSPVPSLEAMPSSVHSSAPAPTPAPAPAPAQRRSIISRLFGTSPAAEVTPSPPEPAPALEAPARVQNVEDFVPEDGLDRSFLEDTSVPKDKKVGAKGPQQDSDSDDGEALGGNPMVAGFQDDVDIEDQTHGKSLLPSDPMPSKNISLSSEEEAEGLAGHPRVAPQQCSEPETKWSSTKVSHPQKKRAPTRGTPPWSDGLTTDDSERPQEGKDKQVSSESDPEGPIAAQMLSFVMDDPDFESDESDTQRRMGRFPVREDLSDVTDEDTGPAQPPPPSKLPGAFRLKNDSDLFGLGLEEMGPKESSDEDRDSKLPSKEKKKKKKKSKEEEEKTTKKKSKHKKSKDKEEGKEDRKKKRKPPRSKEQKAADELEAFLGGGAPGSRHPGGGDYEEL
Sequence of Heterogeneous nuclear ribonucleoprotein U (HNRNPU) (Q8VEK3 whole entry): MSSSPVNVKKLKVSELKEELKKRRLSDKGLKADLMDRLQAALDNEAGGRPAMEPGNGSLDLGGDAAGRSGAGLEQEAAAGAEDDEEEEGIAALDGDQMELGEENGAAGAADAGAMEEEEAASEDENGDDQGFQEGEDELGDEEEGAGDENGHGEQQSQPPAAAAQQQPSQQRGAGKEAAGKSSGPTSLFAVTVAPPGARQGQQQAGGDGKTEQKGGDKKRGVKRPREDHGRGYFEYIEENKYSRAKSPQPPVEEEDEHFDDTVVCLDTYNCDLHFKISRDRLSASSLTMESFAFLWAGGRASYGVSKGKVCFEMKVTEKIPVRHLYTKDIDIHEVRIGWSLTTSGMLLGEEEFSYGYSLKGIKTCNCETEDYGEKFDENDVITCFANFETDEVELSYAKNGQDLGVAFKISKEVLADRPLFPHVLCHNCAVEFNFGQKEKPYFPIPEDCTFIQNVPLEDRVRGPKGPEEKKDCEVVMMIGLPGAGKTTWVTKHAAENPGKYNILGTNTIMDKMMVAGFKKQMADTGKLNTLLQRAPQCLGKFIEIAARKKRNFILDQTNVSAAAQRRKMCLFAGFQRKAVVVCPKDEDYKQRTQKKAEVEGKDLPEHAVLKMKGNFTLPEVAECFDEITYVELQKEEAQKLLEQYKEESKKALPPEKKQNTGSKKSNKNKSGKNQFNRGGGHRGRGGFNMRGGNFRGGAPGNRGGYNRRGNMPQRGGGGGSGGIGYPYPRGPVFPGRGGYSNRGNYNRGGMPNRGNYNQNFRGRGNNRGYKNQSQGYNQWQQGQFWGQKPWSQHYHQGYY
Sequence of Filamin-A (FLNA) (Q8BTM8 whole entry): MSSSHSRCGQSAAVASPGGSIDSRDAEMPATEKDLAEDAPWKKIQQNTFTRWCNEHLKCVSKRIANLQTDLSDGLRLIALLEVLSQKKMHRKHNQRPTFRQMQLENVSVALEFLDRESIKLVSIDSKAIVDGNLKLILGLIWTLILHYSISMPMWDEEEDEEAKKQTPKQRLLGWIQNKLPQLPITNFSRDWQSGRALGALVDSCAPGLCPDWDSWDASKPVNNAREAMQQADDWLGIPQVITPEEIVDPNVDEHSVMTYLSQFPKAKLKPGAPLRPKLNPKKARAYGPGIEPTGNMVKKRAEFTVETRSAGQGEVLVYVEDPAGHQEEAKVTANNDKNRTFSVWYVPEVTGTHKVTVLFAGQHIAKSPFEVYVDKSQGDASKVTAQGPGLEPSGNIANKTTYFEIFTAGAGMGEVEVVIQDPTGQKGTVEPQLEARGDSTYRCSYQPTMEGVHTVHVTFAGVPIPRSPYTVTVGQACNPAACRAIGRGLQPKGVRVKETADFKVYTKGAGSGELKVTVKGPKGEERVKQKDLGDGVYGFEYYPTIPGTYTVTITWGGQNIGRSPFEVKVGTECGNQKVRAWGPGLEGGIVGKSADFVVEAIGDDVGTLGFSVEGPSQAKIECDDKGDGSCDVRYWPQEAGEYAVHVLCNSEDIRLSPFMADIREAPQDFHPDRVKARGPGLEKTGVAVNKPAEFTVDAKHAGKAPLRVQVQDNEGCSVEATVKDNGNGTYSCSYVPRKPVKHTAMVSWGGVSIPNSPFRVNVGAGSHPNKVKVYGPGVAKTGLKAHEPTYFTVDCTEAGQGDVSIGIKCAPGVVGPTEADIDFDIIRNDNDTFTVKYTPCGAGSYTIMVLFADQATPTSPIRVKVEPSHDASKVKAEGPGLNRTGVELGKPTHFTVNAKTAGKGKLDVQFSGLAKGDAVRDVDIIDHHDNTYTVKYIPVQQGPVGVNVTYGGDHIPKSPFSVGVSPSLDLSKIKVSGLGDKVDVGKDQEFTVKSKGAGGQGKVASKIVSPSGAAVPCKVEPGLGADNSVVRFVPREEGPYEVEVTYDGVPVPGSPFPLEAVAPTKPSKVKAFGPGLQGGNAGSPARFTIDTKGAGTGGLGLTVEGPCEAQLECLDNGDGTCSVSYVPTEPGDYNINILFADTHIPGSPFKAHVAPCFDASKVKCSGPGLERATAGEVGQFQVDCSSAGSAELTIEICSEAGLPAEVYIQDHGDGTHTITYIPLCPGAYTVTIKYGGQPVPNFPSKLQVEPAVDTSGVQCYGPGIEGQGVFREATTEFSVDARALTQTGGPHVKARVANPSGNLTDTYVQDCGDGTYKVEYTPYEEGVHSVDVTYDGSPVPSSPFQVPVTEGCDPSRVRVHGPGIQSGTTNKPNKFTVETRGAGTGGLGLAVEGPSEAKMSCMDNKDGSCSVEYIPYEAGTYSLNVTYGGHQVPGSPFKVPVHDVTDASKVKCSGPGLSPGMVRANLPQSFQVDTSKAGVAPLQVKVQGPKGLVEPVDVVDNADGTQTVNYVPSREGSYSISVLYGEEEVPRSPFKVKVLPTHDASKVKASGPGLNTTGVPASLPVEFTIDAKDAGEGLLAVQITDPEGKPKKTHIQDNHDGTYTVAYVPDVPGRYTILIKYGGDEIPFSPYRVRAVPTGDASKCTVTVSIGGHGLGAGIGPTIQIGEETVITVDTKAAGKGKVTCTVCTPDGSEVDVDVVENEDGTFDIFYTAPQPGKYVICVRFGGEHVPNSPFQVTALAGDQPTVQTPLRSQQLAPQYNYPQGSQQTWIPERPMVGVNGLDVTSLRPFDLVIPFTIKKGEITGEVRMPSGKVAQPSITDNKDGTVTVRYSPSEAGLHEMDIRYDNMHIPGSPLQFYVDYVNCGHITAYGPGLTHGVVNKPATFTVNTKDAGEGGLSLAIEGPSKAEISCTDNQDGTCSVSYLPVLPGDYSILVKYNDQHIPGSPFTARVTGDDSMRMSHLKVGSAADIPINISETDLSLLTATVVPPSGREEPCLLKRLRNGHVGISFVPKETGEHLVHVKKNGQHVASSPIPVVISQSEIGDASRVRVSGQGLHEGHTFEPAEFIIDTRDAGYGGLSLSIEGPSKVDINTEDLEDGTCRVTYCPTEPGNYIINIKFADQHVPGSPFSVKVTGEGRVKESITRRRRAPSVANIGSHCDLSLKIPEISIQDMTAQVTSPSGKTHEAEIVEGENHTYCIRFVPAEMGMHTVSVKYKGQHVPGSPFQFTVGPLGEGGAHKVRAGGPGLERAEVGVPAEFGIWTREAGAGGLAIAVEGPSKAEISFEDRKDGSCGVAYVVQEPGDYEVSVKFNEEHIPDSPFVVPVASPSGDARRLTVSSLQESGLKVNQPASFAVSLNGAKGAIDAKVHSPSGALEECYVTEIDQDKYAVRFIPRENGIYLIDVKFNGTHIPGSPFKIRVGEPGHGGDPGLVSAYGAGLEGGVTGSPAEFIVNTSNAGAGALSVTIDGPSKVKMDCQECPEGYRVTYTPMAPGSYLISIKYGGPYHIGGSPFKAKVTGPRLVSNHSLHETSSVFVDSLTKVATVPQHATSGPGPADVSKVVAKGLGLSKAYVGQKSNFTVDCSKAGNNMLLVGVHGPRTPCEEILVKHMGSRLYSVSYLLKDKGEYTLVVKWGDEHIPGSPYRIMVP
Sequence of HSC 71 (P63017 whole entry): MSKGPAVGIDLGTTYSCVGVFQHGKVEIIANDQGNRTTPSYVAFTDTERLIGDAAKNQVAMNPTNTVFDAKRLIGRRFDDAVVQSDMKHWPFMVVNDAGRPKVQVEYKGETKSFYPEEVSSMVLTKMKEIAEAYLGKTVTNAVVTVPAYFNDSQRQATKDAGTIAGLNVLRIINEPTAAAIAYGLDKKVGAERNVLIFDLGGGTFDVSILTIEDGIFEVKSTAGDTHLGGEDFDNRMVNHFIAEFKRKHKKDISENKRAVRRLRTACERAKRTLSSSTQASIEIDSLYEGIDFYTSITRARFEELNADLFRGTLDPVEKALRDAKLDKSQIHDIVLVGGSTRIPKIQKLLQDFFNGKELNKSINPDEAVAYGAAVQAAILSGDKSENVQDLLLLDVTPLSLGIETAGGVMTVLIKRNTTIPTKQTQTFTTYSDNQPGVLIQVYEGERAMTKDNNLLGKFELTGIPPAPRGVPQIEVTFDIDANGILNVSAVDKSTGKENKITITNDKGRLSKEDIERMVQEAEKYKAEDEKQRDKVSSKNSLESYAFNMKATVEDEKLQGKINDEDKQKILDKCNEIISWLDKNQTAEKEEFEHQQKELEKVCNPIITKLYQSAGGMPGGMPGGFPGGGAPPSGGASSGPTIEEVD
Sequence of Histone H2A.Z (P0C0S6 whole entry): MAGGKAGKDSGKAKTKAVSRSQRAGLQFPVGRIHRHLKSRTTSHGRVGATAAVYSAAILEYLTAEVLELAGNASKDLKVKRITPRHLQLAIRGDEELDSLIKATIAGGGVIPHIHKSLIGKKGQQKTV

CC1CCC2(C(=O)OCCCCOC(=O)CCCCC3SCC4NC(=O)NC43)CCC3(C)C(=CCC4C5(C)CCC(O)C(C)(C)C5CCC43C)C2C1C [Compound 5c, 4-((5-((3aS,4S,6aR)-2-Oxohexahydro-1H-thieno [3,4-d]imidazol-4-yl)pentanoyl)oxy) butyl 3-hydroxy-urs-12-en-28-oate]
Fold Change 10 min/Ctrl (ATP synthase subunit O): 4 | Fold Change 1 h/Ctrl (ATP synthase subunit O): 5 | Fold Change 10 min/Ctrl [1]: 1.26 | Fold Change 1 h/Ctrl [1]: 1.26 | Fold Change 10 min/Ctrl [2]: 1.31 | Fold Change 1 h/Ctrl [2]: 1.82 | Fold Change 10 min/Ctrl [3]: 1.4 | Fold Change 1 h/Ctrl [3]: 2 | Fold Change 1 h/Ctrl [4]: 1 | Fold Change 10 min/Ctrl [5]: 3 | Fold Change 1 h/Ctrl [5]: 2 | Fold Change 10 min/Ctrl [6]: 1 | Fold Change 1 h/Ctrl [6]: 3 | Fold Change 10 min/Ctrl [7]: 2 | Fold Change 1 h/Ctrl [7]: 0 | Fold Change 10 min/Ctrl [8]: 3 | Fold Change 1 h/Ctrl [8]: 2.75 | Fold Change 10 min/Ctrl (Filamin-A (FLNA)): 3.33 | Fold Change 1 h/Ctrl (Filamin-A (FLNA)): 4 | Fold Change 10 min/Ctrl (HSC 71): 1.5 | Fold Change 1 h/Ctrl (HSC 71): 2 | Fold Change 10 min/Ctrl (HSP 90-alpha (HSP90α)): 1.07 | Fold Change 1 h/Ctrl (HSP 90-alpha (HSP90α)): 1.25 | Fold Change 10 min/Ctrl (HSP 90-beta (HSP90β)): 1.40 | Fold Change 1 h/Ctrl (HSP 90-beta (HSP90β)): 1.71 | Fold Change 10 min/Ctrl [9]: 2.38 | Fold Change 1 h/Ctrl [9]: 2.13 | Fold Change 10 min/Ctrl [10]: 1.58 | Fold Change 1 h/Ctrl [10]: 1.27 | Fold Change 10 min/Ctrl (Histone H2A.Z): 1.86 | Fold Change 1 h/Ctrl (Histone H2A.Z): 1.20 | Fold Change 10 min/Ctrl (Histone H4): 1.64 | Fold Change 1 h/Ctrl (Histone H4): 1.18 | Fold Change 10 min/Ctrl [11]: 3 | Fold Change 1 h/Ctrl [11]: 5.5 | Fold Change 10 min/Ctrl [12]: 1 | Fold Change 1 h/Ctrl [12]: 3 | Fold Change 10 min/Ctrl [13]: 0.88 | Fold Change 1 h/Ctrl [13]: 1.29 | Fold Change 10 min/Ctrl [14]: 1.33 | Fold Change 1 h/Ctrl [14]: 1.56
